Experimental data: PubChem BioAssay AID2060510 (Molecular Pharmacology Branch, DTP, NCI, 2025)

System: 439559-082-T-J2-PDC spheroids viability
Assay: Anticancer human tumor 439559-082-T-J2-PDC patient-derived colon adenocarcinoma cell line growth inhibition [GQUAD]
Conditions: for IC50: curve of first compound; for viability, T/C: stronger effect = lower value
How it was run: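 Multi-cell-type spheroids of tumor cells with HUVEC and mesenchymal stem cells, treated with drug combinations. Concentrations descend in half-log steps from near clinical Cmax, or from 10 microM where Cmax is unknown; viability read-out.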

[1] = second compound 0.0316 µM, first compound 0.000999 µM
[2] = second compound 0.0316 µM, first compound 0.00316 µM
[3] = second compound 0.0316 µM, first compound 0.00999 µM
[4] = second compound 0.0316 µM, first compound 0.0316 µM
[5] = second compound 0.0316 µM, first compound 0.0999 µM
[6] = second compound 0.0316 µM, first compound 0.316 µM
[7] = second compound 0.1 µM, first compound 0.000999 µM
[8] = second compound 0.1 µM, first compound 0.00316 µM
[9] = second compound 0.1 µM, first compound 0.00999 µM
[10] = second compound 0.1 µM, first compound 0.0316 µM
[11] = second compound 0.1 µM, first compound 0.0999 µM
[12] = second compound 0.1 µM, first compound 0.316 µM
[13] = second compound 0.316 µM, first compound 0.000999 µM
[14] = second compound 0.316 µM, first compound 0.00316 µM
[15] = second compound 0.316 µM, first compound 0.00999 µM
[16] = second compound 0.316 µM, first compound 0.0316 µM
[17] = second compound 0.316 µM, first compound 0.0999 µM
[18] = second compound 0.316 µM, first compound 0.316 µM
[19] = second compound 1 µM, first compound 0.000999 µM
[20] = second compound 1 µM, first compound 0.00316 µM
[21] = second compound 1 µM, first compound 0.00999 µM
[22] = second compound 1 µM, first compound 0.0316 µM
[23] = second compound 1 µM, first compound 0.0999 µM
[24] = second compound 1 µM, first compound 0.316 µM
[25] = second compound 3.16 µM, first compound 0.000999 µM
[26] = second compound 3.16 µM, first compound 0.00316 µM
[27] = second compound 3.16 µM, first compound 0.00999 µM
[28] = second compound 3.16 µM, first compound 0.0316 µM
[29] = second compound 3.16 µM, first compound 0.0999 µM
[30] = second compound 3.16 µM, first compound 0.316 µM
[31] = second compound 10 µM, first compound 0.000999 µM
[32] = second compound 10 µM, first compound 0.00316 µM
[33] = second compound 10 µM, first compound 0.00999 µM
[34] = second compound 10 µM, first compound 0.0316 µM
[35] = second compound 10 µM, first compound 0.0999 µM
[36] = second compound 10 µM, first compound 0.316 µM
[37] = second compound 0.0316 µM, first compound 0.1 µM
[38] = second compound 0.0316 µM, first compound 1 µM
[39] = second compound 0.0316 µM, first compound 3.16 µM
[40] = second compound 0.0316 µM, first compound 10 µM
[41] = second compound 0.1 µM, first compound 0.1 µM
[42] = second compound 0.1 µM, first compound 1 µM
[43] = second compound 0.1 µM, first compound 3.16 µM
[44] = second compound 0.1 µM, first compound 10 µM
[45] = second compound 0.316 µM, first compound 0.1 µM
[46] = second compound 0.316 µM, first compound 1 µM
[47] = second compound 0.316 µM, first compound 3.16 µM
[48] = second compound 0.316 µM, first compound 10 µM
[49] = second compound 1 µM, first compound 0.1 µM
[50] = second compound 1 µM, first compound 1 µM
[51] = second compound 1 µM, first compound 3.16 µM
[52] = second compound 1 µM, first compound 10 µM
[53] = second compound 3.16 µM, first compound 0.1 µM
[54] = second compound 3.16 µM, first compound 1 µM
[55] = second compound 3.16 µM, first compound 3.16 µM
[56] = second compound 3.16 µM, first compound 10 µM
[57] = second compound 10 µM, first compound 0.1 µM
[58] = second compound 10 µM, first compound 1 µM
[59] = second compound 10 µM, first compound 3.16 µM
[60] = second compound 10 µM, first compound 10 µM
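Also: spheroids exposed to the agents for 7 days before readout.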
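For viability, T/C in this document: percent of luminescence signal in DMSO vehicle wells taken as 100% viability.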

CC[C@@]1(O)C(=O)OCc2c1cc1n(c2=O)Cc2cc3c(CN(C)C)c(O)ccc3nc2-1 + CN(C)c1ccc(Nc2c3ccc(NC(=O)CCN4CCCC4)cc3nc3cc(NC(=O)CCN4CCCC4)ccc23)cc1
IC50 (second compound 0.0316 µM): > 0.316 µM
IC50 (second compound 0.1 µM): > 0.316 µM
IC50 (second compound 0.316 µM): > 0.316 µM
IC50 (second compound 1 µM): > 0.316 µM
IC50 (second compound 3.16 µM): > 0.316 µM
IC50 (second compound 10 µM): > 0.316 µM
viability, T/C [1]: 102%
viability, T/C [2]: 94.6%
viability, T/C [3]: 104%
viability, T/C [4]: 106%
viability, T/C [5]: 90.2%
viability, T/C [6]: 76%
viability, T/C [7]: 108%
viability, T/C [8]: 111%
viability, T/C [9]: 102%
viability, T/C [10]: 85.7%
viability, T/C [11]: 91.8%
viability, T/C [12]: 84%
viability, T/C [13]: 123%
viability, T/C [14]: 97.1%
viability, T/C [15]: 101%
viability, T/C [16]: 100%
viability, T/C [17]: 87.9%
viability, T/C [18]: 84.7%
viability, T/C [19]: 114%
viability, T/C [20]: 99%
viability, T/C [21]: 88.5%
viability, T/C [22]: 101%
viability, T/C [23]: 91.1%
viability, T/C [24]: 80.1%
viability, T/C [25]: 99.8%
viability, T/C [26]: 92.6%
viability, T/C [27]: 102%
viability, T/C [28]: 93.2%
viability, T/C [29]: 103%
viability, T/C [30]: 91.9%
viability, T/C [31]: 102%
viability, T/C [32]: 95%
viability, T/C [33]: 100%
viability, T/C [34]: 107%
viability, T/C [35]: 85.8%
viability, T/C [36]: 88.5%

CCc1c2c(nc3ccc(O)cc13)-c1cc3c(c(=O)n1C2)COC(=O)[C@]3(O)CC + CN(C)c1ccc(Nc2c3ccc(NC(=O)CCN4CCCC4)cc3nc3cc(NC(=O)CCN4CCCC4)ccc23)cc1
IC50 (second compound 0.0316 µM): 0.163 µM
IC50 (second compound 0.1 µM): 0.181 µM
IC50 (second compound 0.316 µM): 0.207 µM
IC50 (second compound 1 µM): 0.179 µM
IC50 (second compound 3.16 µM): 0.196 µM
IC50 (second compound 10 µM): 0.195 µM
viability, T/C [1]: 99.7%
viability, T/C [2]: 88.5%
viability, T/C [3]: 72.7%
viability, T/C [4]: 70.1%
viability, T/C [5]: 52.5%
viability, T/C [6]: 43.8%
viability, T/C [7]: 110%
viability, T/C [8]: 91%
viability, T/C [9]: 82.1%
viability, T/C [10]: 72.6%
viability, T/C [11]: 56.6%
viability, T/C [12]: 42.9%
viability, T/C [13]: 104%
viability, T/C [14]: 93.6%
viability, T/C [15]: 77.1%
viability, T/C [16]: 70.5%
viability, T/C [17]: 67.7%
viability, T/C [18]: 40.3%
viability, T/C [19]: 93.3%
viability, T/C [20]: 85.7%
viability, T/C [21]: 85.8%
viability, T/C [22]: 69.3%
viability, T/C [23]: 56.8%
viability, T/C [24]: 43.9%
viability, T/C [25]: 100%
viability, T/C [26]: 90%
viability, T/C [27]: 76.6%
viability, T/C [28]: 64.2%
viability, T/C [29]: 61.5%
viability, T/C [30]: 43.2%
viability, T/C [31]: 106%
viability, T/C [32]: 79%
viability, T/C [33]: 80.8%
viability, T/C [34]: 75.4%
viability, T/C [35]: 59.6%
viability, T/C [36]: 41.7%

COc1cc(C2c3cc4c(cc3C(OC3OC5COC(C)OC5C(O)C3O)C3COC(=O)C23)OCO4)cc(OC)c1O (stereo not drawn) + CN(C)c1ccc(Nc2c3ccc(NC(=O)CCN4CCCC4)cc3nc3cc(NC(=O)CCN4CCCC4)ccc23)cc1
IC50 (second compound 0.0316 µM): > 10 µM
IC50 (second compound 0.1 µM): > 10 µM
IC50 (second compound 0.316 µM): > 10 µM
IC50 (second compound 1 µM): > 10 µM
IC50 (second compound 3.16 µM): > 10 µM
IC50 (second compound 10 µM): > 10 µM
viability, T/C [4]: 102%
viability, T/C [37]: 93.9%
viability, T/C [6]: 103%
viability, T/C [38]: 85.6%
viability, T/C [39]: 87.1%
viability, T/C [40]: 63.8%
viability, T/C [10]: 96.4%
viability, T/C [41]: 91.8%
viability, T/C [12]: 98.4%
viability, T/C [42]: 94.7%
viability, T/C [43]: 85%
viability, T/C [44]: 61.9%
viability, T/C [16]: 104%
viability, T/C [45]: 104%
viability, T/C [18]: 89.6%
viability, T/C [46]: 89%
viability, T/C [47]: 78.6%
viability, T/C [48]: 59.9%
viability, T/C [22]: 104%
viability, T/C [49]: 94.2%
viability, T/C [24]: 89.6%
viability, T/C [50]: 90%
viability, T/C [51]: 76.5%
viability, T/C [52]: 57%
viability, T/C [28]: 98%
viability, T/C [53]: 87.1%
viability, T/C [30]: 104%
viability, T/C [54]: 92.5%
viability, T/C [55]: 92.4%
viability, T/C [56]: 63.3%
viability, T/C [34]: 98.5%
viability, T/C [57]: 93.3%
viability, T/C [36]: 94.9%
viability, T/C [58]: 91.3%
viability, T/C [59]: 75.9%
viability, T/C [60]: 54.5%

COc1cccc2c1C(=O)c1c(O)c3c(c(O)c1C2=O)CC(O)(C(=O)CO)CC3OC1CC(N)C(O)C(C)O1 (stereo not drawn) + CN(C)c1ccc(Nc2c3ccc(NC(=O)CCN4CCCC4)cc3nc3cc(NC(=O)CCN4CCCC4)ccc23)cc1
IC50 (second compound 0.0316 µM): 5.76 µM
IC50 (second compound 0.1 µM): 7.85 µM
IC50 (second compound 0.316 µM): 6.45 µM
IC50 (second compound 1 µM): 5.9 µM
IC50 (second compound 3.16 µM): 5.07 µM
IC50 (second compound 10 µM): 7.92 µM
viability, T/C [4]: 106%
viability, T/C [37]: 86.7%
viability, T/C [6]: 93.4%
viability, T/C [38]: 77.5%
viability, T/C [39]: 62.2%
viability, T/C [40]: 38.8%
viability, T/C [10]: 93.8%
viability, T/C [41]: 95.5%
viability, T/C [12]: 89.1%
viability, T/C [42]: 73.2%
viability, T/C [43]: 59.1%
viability, T/C [44]: 47.4%
viability, T/C [16]: 96.8%
viability, T/C [45]: 101%
viability, T/C [18]: 91.9%
viability, T/C [46]: 83.5%
viability, T/C [47]: 60.6%
viability, T/C [48]: 43.4%
viability, T/C [22]: 91.3%
viability, T/C [49]: 99.9%
viability, T/C [24]: 89.8%
viability, T/C [50]: 86.1%
viability, T/C [51]: 59.4%
viability, T/C [52]: 42%
viability, T/C [28]: 94.6%
viability, T/C [53]: 96.1%
viability, T/C [30]: 84%
viability, T/C [54]: 84.9%
viability, T/C [55]: 54.8%
viability, T/C [56]: 42.4%
viability, T/C [34]: 88.7%
viability, T/C [57]: 102%
viability, T/C [36]: 82.4%
viability, T/C [58]: 77.8%
viability, T/C [59]: 62.4%
viability, T/C [60]: 46.8%
